Ends that are not written are not given here.
Test system: HaCaT cells
Test: Cytotoxicity evaluation (CCK8 assay)
Format: cell-based
Settings: serum-free medium, 24 hours
Procedure: HaCaT cells and B16F10 cells were cultured in a cell culture medium supplemented with 10% of fetal bovine serum (FBS) and antibiotic solution (100 units/ml penicillin, 100 μg/ml of streptomycin) in DMEM medium. The cells were cultured under conditions maintained at 37° C., 95% humidity, and 5% CO2, and when the cells were 70-80% adhered to the culture dish, they were treated with trypsin-EDTA and subcultured. HaCaT cells were distributed and cultured from Professor Tae-Yoon Kim of the College of Medicine, The Catholic University of Korea, and B16F10 cells were distributed and cultured from the Korean Cell Line Bank.
To evaluate the toxicity of RMNE1 in HaCaT skin cells, 3×10^4 of HaCaT cells were attached to a 96-well plate 12 hours ago. Thereafter, the cells were washed using serum-free DMEM medium and then treated with RMNE1 peptide at different concentrations in the serum-free medium. After 24 hours, the cells were washed a total of three times with serum-free medium, and then cell activity was measured using the CCK8 assay.

Which cytotoxicity does the source give for “DEQERRRRRGRTRVRSE [RMNE1, DEQERRRRRGRTRVRSE]” here?
Its cytotoxicity is “low cytotoxicity”.
